Assay results: patent US20150265614A1, “ORAL PREPARATION AND METHOD FOR PRODUCING THE SAME” (CHUNG-ANG UNIVERSITY INDUSTRY-ACADEMY COOPERATION FOUNDATION, priority 2012, published 2015)

Test: laser scattering particle size analysis of naproxen crystal particles
Format: physicochemical
Details: HORIBA LA-910 laser scattering particle size analyzer
Source text: The sizes of the crystal particles of naproxen prepared in Examples 6 and 7 and Comparative Example 2 were observed. Specifically, the degree of dispersion of the particle sizes of a nonsteroidal anti-inflammatory drug (NSAID) agent naproxen ((+)-(S)-2-(6-methoxynaphthalen-2-yl)propanoic acid) was observed by using HORIBA LA-910 LASER SCATTERING PARTICLE SIZE ANALYZER. The observation results are each illustrated in FIGS. 16 to 18.

SMILES: COc1ccc2cc([C@H](C)C(=O)O)ccc2c1 [Comparative Example 2, (+)-(s)-2-(6-methoxynaphthalen-2-yl)propanoic acid]
- average particle diameter / average crystal size of naproxen: 9.5 μm
